Test results: patent publication EP0913150A1, “Combination of actives, viz. salicyl alcohol and fumaric acid and/or maleic acid, for the treatment of seborrheoic skin diseases, especially psoriasis” (Phytexpert, Pharm-Tox-Consulting GmbH, priority 1997, dated 1999)
Values after ≈ are worked out from the molar mass of the structure shown. Read-outs that look alike come from different tables or passages of the source.

Experiments:
[1] = Cytotoxicity, release of lactate dehydrogenase (LDH); format: cell-based, menschlichen; conditions: human
Description: (§1) Die Zellproliferation der Hautzellen wurde anhand der bekannten Neutralrotmethode untersucht. Die Zellschädigung wurde durch gleichzeitige Untersuchung der Freisetzung eines cytosolischen Enzyms, der Lactatdehydrogenase, zusätzlich bestimmt. In einigen Versuchen wurde auch die DNA-Synthese anhand der Inkorporation von ^3H-Thymidin mituntersucht.

[2] = system: menschlichen Keratinozyten (HaCat); assay: Inhibition of cell proliferation, neutral red (NR) method; format: cell-based; conditions: Homo sapiens, read-out: NR-Methode *IC50
Description: as §1

[3] = system: menschlichen Keratinozyten (HaCat); assay: DNA synthesis, 3H-thymidine incorporation; format: cell-based; conditions: Homo sapiens; HaCat keratinocytes; influence on DNA synthesis; read-out: ^3H-Thymidin-Einbau
Description: as §1

[4] = HaCat keratinocytes, 50% inhibition of cell growth

SMILES	CC50 ([1]; hacat keratinocytes) [µg/mL]	IC50 ([2]; HaCaT) [µg/mL]	IC50 [2, 4] [µg/mL]	CC50 ([1]; HaCat keratinocytes, measure of cytotoxicity, as concentration of the active substance, read-out: LDH-Freisetzung*) [µg/mL]	IC50 [3] [µg/mL]
C[C@@H]1C[C@H]2[C@@H]3CCC4=CC(=O)C=C[C@]4(C)[C@@]3(F)[C@@H](O)C[C@]2(C)[C@@]1(O)C(=O)CO [Dexamethason]	> 600	800 (≈ 2.04 mM)			
O=C(O)/C=C\C(=O)O [Maleinsäure]	> 1000		1700 (≈ 14.6 mM)		
O=C(O)/C=C/C(=O)O [Na-Fumarat, Natriumfumarat]	> 10000		4900 (≈ 42.2 mM)		
O=C(O)c1ccccc1O [Na-Salicylat, Natriumsalicylat]		1500 (≈ 10.9 mM)		> 2000	
O=Cc1ccccc1O [Salicylaldehyd]	> 100		34 (≈ 0.278 mM)		
OCc1ccccc1O [Salicylalkohol, 2-Hydroxybenzylalkohol]	> 600		780 (≈ 6.28 mM)		300 (≈ 2.42 mM)
